Numbers after ± are expanded uncertainties.
Experiment: xn = mol fraction of the nth substance listed
Conditions: 101 kPa, Liquid

CC#N [acetonitrile] + CCCCn1cc[n+](C)c1.F[P-](F)(F)(F)(F)F
x2 = 0
Conditions	mass density [kg/m3]	speed of sound [m/s]
298.15 K	776.533 ± 1.9	1278.6 ± 5.5
303.15 K	771.116 ± 1.9	1258.7 ± 5.5
308.15 K	765.66 ± 2	1238.7 ± 5.4
313.15 K	760.162 ± 2	1218.5 ± 5.3
318.15 K	754.462 ± 2	1198.3 ± 5.3

CCCCn1cc[n+](C)c1.F[P-](F)(F)(F)(F)F [1-butyl-3-methylimidazolium hexafluorophosphate] + CO
Conditions	mass density, 298.15 K [kg/m3]	mass density, 303.15 K [kg/m3]	mass density, 308.15 K [kg/m3]	mass density, 313.15 K [kg/m3]	mass density, 318.15 K [kg/m3]	speed of sound, 298.15 K [m/s]	speed of sound, 303.15 K [m/s]	speed of sound, 308.15 K [m/s]	speed of sound, 313.15 K [m/s]	speed of sound, 318.15 K [m/s]
x1 = 0.0223	852.499 ± 1.4	847.778 ± 1.5	843.039 ± 1.5	838.277 ± 1.5	833.49 ± 1.5	1132.1 ± 5.1	1116.9 ± 5	1101.8 ± 5	1086.7 ± 4.9	1071.7 ± 4.9
x1 = 0.0484	914.856 ± 1	910.156 ± 1.1	905.442 ± 1.1	900.703 ± 1.1	895.952 ± 1.2	1155.5 ± 5.1	1141.5 ± 5.1	1127.5 ± 5	1113.6 ± 5	1099.7 ± 5
x1 = 0.0786	972.943 ± 0.69	968.272 ± 0.71	963.583 ± 0.74	958.877 ± 0.77	954.071 ± 0.8	1180.7 ± 5.2	1167.7 ± 5.2	1154.6 ± 5.1	1141.6 ± 5.1	1128.6 ± 5
x1 = 0.1869	1111.37 ± 1.2	1106.76 ± 1.2	1102.15 ± 1.2	1097.53 ± 1.2	1092.91 ± 1.1	1261.6 ± 5.5	1249.8 ± 5.4	1238 ± 5.4	1226.1 ± 5.4	1214.3 ± 5.3
x1 = 0.2156	1136.5 ± 1.4	1131.89 ± 1.4	1127.3 ± 1.3	1122.7 ± 1.3	1118.12 ± 1.3	1280.7 ± 5.5	1268.9 ± 5.5	1257.2 ± 5.5	1245.5 ± 5.4	1233.8 ± 5.4
x1 = 0.3573	1223.91 ± 2	1219.39 ± 1.9	1214.87 ± 1.9	1210.36 ± 1.9	1205.87 ± 1.9	1340.7 ± 5.8	1329.1 ± 5.7	1317.5 ± 5.7	1306 ± 5.7	1294.5 ± 5.6
x1 = 0.4572	1263.6 ± 2.2	1259.04 ± 2.2	1254.81 ± 2.2	1250.5 ± 2.2	1246.03 ± 2.1	1366.7 ± 5.9	1355.1 ± 5.8	1343.6 ± 5.8	1332.1 ± 5.8	1320.7 ± 5.7
x1 = 0.6222	1308.96 ± 2.6	1304.59 ± 2.5	1300.24 ± 2.5	1295.96 ± 2.5	1291.78 ± 2.5	1400.5 ± 6	1388.9 ± 6	1377.4 ± 6	1365.9 ± 5.9	1354.7 ± 5.9
x1 = 0.7736	1337.5 ± 2.8	1333.24 ± 2.8	1328.99 ± 2.8	1324.76 ± 2.7	1320.54 ± 2.7	1421.1 ± 6.2	1409.5 ± 6.1	1398 ± 6.1	1386.6 ± 6	1375.3 ± 6
x1 = 0.9208	1357.7 ± 3	1353.55 ± 3	1349.39 ± 3	1345.23 ± 2.9	1341.08 ± 2.9	1435.2 ± 6.3	1423.5 ± 6.2	1411.9 ± 6.2	1400.6 ± 6.2	1389.4 ± 6.1
x1 = 1	1366.66 ± 3.1	1362.4 ± 3.1	1358.3 ± 3.1	1354.19 ± 3	1350.08 ± 3	1442.4 ± 6.3	1430.6 ± 6.3	1419 ± 6.3	1407.5 ± 6.2	1396.3 ± 6.2

Source: the NIST ThermoML archive (doi:10.1021/je050165t)
